The record followed here is patent US20240270762A1, “PENICILLIN-BINDING PROTEIN INHIBITORS” (priority 2021, published 2024).

≈ marks a conversion by molar mass, not a printed value. Read-outs that look alike come from different tables or passages of the source.

The target in test [1] is T1, A. baumannii PBP1a (Acinetobacter baumannii, UniProt A0ABX6CK30).
T1 sequence (A0ABX6CK30 1-851): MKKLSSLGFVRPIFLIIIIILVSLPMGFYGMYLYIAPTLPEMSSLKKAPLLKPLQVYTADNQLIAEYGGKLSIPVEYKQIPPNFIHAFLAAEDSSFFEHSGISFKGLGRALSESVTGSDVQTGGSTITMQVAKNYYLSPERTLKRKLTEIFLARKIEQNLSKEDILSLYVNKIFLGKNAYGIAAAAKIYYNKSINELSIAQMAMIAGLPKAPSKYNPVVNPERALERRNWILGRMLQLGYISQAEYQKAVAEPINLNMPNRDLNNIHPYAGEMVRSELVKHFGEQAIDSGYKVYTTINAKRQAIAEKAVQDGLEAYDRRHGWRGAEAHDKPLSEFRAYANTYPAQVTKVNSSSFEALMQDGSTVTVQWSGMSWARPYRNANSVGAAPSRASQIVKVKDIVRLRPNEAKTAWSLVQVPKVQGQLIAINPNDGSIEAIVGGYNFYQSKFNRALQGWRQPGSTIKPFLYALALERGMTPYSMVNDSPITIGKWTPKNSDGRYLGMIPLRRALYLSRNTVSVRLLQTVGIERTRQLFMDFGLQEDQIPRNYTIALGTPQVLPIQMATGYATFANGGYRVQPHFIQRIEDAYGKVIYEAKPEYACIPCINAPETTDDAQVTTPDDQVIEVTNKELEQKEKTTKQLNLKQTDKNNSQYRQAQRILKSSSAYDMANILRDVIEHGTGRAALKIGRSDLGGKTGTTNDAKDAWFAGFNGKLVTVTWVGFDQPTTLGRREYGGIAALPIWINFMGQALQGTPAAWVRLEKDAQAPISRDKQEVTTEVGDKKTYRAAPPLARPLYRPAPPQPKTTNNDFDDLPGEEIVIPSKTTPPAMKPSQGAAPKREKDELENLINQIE
Description: Bocillin-FL competition binding via gel filtration, A. baumannii PBP1a. The following applies: competition binding assay using Bocillin-FL via gel filtration; read-out: A. baumannii PBP1a Potency. In a few lines: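 Competitive equilibrium binding with Bocillin-FL reporter: PBP pre-incubated with inhibitor dilutions, Bocillin-FL added, 15 min incubation. Labelled enzyme isolated by size-exclusion spin plates, fluorescence measured; EC50 obtained by fitting bound fraction against inhibitor concentration with a Hill-coefficient model.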
For orientation: In gel filtration, larger molecules generally elute earlier.

Test [2] concerns B. thailandensis ATCC 700388. Nature of the test: microbe, parasite or virus in culture. The note with it: Burkholderia thailandensis, ATCC700388, read-out: Minimum inhibitory concentration (MIC), B. thailandensis ATCC 700388. In kind it is cell-based.
The target of test [3] is T2, PBP3 from Pseudomonas aeruginosa (PAO1) (Pseudomonas aeruginosa, UniProt G3XD46).
T2 construct: made in house
Description: Bocillin-FL fluorescence polarization competition binding, P. aeruginosa PBP3. The following applies: Binding affinity to P. aeruginosa PBP3; fluorescence polarization competition binding assay using Bocillin-FL; read-out: P. aeruginosa PBP3 Potency. Summed up: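 Purified PBP was preincubated with inhibitor (E. coli PBP3 1.5 μM, 30 min; P. aeruginosa PBP3 0.75 μM, A. baumannii PBP3 0.2 μM and PBP1a 1 μM, 15 min), then Bocillin-FL (0.1 μM; 0.05 μM for PBP1a) added and FP read up to 60 min. EC50 = 50% loss of bound probe.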

Test [4] has as its system P. aeruginosa (ΔmexAB-oprM). Description: Broth microdilution MIC in iron-depleted CAMHB (IDM). In kind it is cell-based. The note with it: Pseudomonas aeruginosa; iron-depleted CAMHB (IDM); […]; read-out: Minimum inhibitory concentration, P. aeruginosa ΔmexAB-oprM. A general note: Broth dilution looks for growth in wells or tubes with falling amounts of substance.
Test [5] concerns A. baumannii CDC-0045. Description: microbe, parasite or virus in culture. The following applies: Acinetobacter baumannii. In kind it is cell-based.
The mark [6] stands for this setting: CDC0045, read-out: MIC, A. baumannii CDC-0045.
Setting [7] is: CDC0045, read-out: Minimum inhibitory concentration (MIC), A. baumannii CDC-0045.

T2 sequence (G3XD46 whole entry): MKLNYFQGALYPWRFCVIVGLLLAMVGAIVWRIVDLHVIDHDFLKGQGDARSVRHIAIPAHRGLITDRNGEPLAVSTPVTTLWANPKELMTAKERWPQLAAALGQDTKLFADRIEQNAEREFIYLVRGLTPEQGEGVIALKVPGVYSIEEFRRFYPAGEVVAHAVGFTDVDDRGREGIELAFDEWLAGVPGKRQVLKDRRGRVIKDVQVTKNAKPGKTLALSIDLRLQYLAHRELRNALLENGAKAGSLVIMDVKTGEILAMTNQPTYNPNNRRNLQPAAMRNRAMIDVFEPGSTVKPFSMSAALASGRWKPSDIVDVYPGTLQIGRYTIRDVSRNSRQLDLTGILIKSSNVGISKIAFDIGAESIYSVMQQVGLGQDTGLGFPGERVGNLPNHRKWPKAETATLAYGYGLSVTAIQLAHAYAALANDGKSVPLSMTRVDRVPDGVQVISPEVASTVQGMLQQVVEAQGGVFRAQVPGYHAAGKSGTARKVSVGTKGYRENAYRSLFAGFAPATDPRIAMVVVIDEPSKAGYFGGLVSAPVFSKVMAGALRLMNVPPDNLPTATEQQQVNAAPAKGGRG

`O=C(O)c1c(F)ccc2c1OB(O)[C@@H](NC(=O)C(NC(=O)N1CCN(C3CCN(C(=O)Nc4cc(O)ccc4F)CC3)C(=O)C1=O)c1cc(F)c(O)c(O)c1Cl)C2` (stereo partly drawn) [Example 479, (3R)-3-(2-(2-chloro-5-fluoro-3,4-dihydroxyphenyl)-2-(4-(1-((2-fluoro-5-hydroxyphenyl)carbamoyl)piperidin-4-yl)-2,3-dioxopiperazine-1-carboxamido)acetamido)-7-fluoro-2-hydroxy-3,4-dihydro-2H-benzo[e][1,2]oxaborinine-8-carboxylic acid]: the EC50 in test [1] lay in the range of 10 to 50 µM. Moreover, the MIC in test [2], in test [4] and in test [5] (setting [6]) was less than 1 µg/mL each time. Besides, the IC50 in test [3] was less than 10 µM.

In the case of `O=C(O)c1c(F)ccc2c1OB(O)[C@@H](NC(=O)C(NC(=O)N1CCN(C3CCN(C(=O)Nc4ccc(F)c(O)c4)CC3)C(=O)C1=O)c1cc(F)c(O)c(O)c1Cl)C2` (stereo partly drawn) [Example 480, (3R)-3-(2-(2-chloro-5-fluoro-3,4-dihydroxyphenyl)-2-(4-(1-((4-fluoro-3-hydroxyphenyl)carbamoyl)piperidin-4-yl)-2,3-dioxopiperazine-1-carboxamido)acetamido)-7-fluoro-2-hydroxy-3,4-dihydro-2H-benzo[e][1,2]oxaborinine-8-carboxylic acid], in test [1], the EC50 is less than 10 µM. Further, the results for the MIC in test [2], in test [4] and in test [5] (setting [6]) were 2 to 4 µg/mL (≈ 2.44 to 4.88 µM), less than 1 µg/mL and less than 1 µg/mL, respectively. The IC50 in test [3] was less than 10 µM.

As for `O=C(O)c1c(F)ccc2c1OB(O)[C@@H](NC(=O)C(NC(=O)N1CCN(C3CCN(C(=O)Nc4cc(O)cc(F)c4)CC3)C(=O)C1=O)c1cc(F)c(O)c(O)c1Cl)C2` (stereo partly drawn) [Example 481, (3R)-3-(2-(2-chloro-5-fluoro-3,4-dihydroxyphenyl)-2-(4-(1-((3-fluoro-5-hydroxyphenyl)carbamoyl)piperidin-4-yl)-2,3-dioxopiperazine-1-carboxamido)acetamido)-7-fluoro-2-hydroxy-3,4-dihydro-2H-benzo[e][1,2]oxaborinine-8-carboxylic acid], the EC50 in test [1] was less than 10 µM. The MIC in test [2] was 2 to 4 µg/mL (≈ 2.44 to 4.88 µM); in test [4], less than 1 µg/mL; in test [5] (setting [6]) it was less than 1 µg/mL. Besides, the IC50 in test [3] is less than 10 µM.

On to `O=C(O)c1c(F)ccc2c1OB(O)[C@@H](NC(=O)[C@H](NC(=O)N1CCN(C3CCN(C(=O)Nc4cccc(O)c4Cl)CC3)C(=O)C1=O)c1cc(F)c(O)c(O)c1Cl)C2` [Example 482, (R)-3-((R)-2-(4-(1-((2-chloro-3-hydroxyphenyl)carbamoyl)piperidin-4-yl)-2,3-dioxopiperazine-1-carboxamido)-2-(2-chloro-5-fluoro-3,4-dihydroxyphenyl)acetamido)-7-fluoro-2-hydroxy-3,4-dihydro-2H-benzo[e][1,2]oxaborinine-8-carboxylic acid], for which the EC50 in test [1] fell in the range of 10 to 50 µM. In addition, the MIC in test [2], in test [4] and in test [5] (setting [6]) was less than 1 µg/mL each time. For the same compound, the IC50 in test [3] is less than 10 µM.

With `O=C(O)c1c(F)ccc2c1OB(O)[C@@H](NC(=O)C(NC(=O)N1CCN(C3CCN(C(=O)Nc4cc(O)ccc4Cl)CC3)C(=O)C1=O)c1cc(F)c(O)c(O)c1Cl)C2` (stereo partly drawn) [Example 483, (3R)-3-(2-(2-chloro-5-fluoro-3,4-dihydroxyphenyl)-2-(4-(1-((2-chloro-5-hydroxyphenyl)carbamoyl)piperidin-4-yl)-2,3-dioxopiperazine-1-carboxamido)acetamido)-7-fluoro-2-hydroxy-3,4-dihydro-2H-benzo[e][1,2]oxaborinine-8-carboxylic acid], the EC50 in test [1] is less than 10 µM. The results for the MIC in test [2], in test [4] and in test [5] (setting [6]) were 32 to 64 µg/mL (≈ 38.3 to 76.6 µM), less than 1 µg/mL and less than 1 µg/mL, respectively. The IC50 in test [3] was less than 10 µM.

For the compound `O=C(O)c1c(F)ccc2c1OB(O)[C@@H](NC(=O)C(NC(=O)N1CCN(C3CCN(C(=O)Nc4cc(O)cc(Cl)c4)CC3)C(=O)C1=O)c1cc(F)c(O)c(O)c1Cl)C2` (stereo partly drawn) [Example 484, (3R)-3-(2-(2-chloro-5-fluoro-3,4-dihydroxyphenyl)-2-(4-(1-((3-chloro-5-hydroxyphenyl)carbamoyl)piperidin-4-yl)-2,3-dioxopiperazine-1-carboxamido)acetamido)-7-fluoro-2-hydroxy-3,4-dihydro-2H-benzo[e][1,2]oxaborinine-8-carboxylic acid], the EC50 in test [1] was less than 10 µM. Moreover, the MIC was 32 to 64 µg/mL (≈ 38.3 to 76.6 µM) in test [2], less than 1 µg/mL in test [4] and less than 1 µg/mL in test [5] (setting [6]). In addition, the IC50 in test [3] is less than 10 µM.

With `O=C(O)c1c(F)ccc2c1OB(O)[C@@H](NC(=O)C(NC(=O)N1CCN(C3CCN(S(=O)(=O)Cc4cccc(O)c4)CC3)C(=O)C1=O)c1cc(F)c(O)c(O)c1Cl)C2` (stereo partly drawn) [Example 485, (3R)-3-(2-(2-chloro-5-fluoro-3,4-dihydroxyphenyl)-2-(4-(1-((3-hydroxybenzyl)sulfonyl)piperidin-4-yl)-2,3-dioxopiperazine-1-carboxamido)acetamido)-7-fluoro-2-hydroxy-3,4-dihydro-2H-benzo[e][1,2]oxaborinine-8-carboxylic acid], the EC50 in test [1] was less than 10 µM. Also, the values for the MIC in test [2], in test [4] and in test [5] (setting [6]) were 2 to 4 µg/mL (≈ 2.39 to 4.78 µM), less than 1 µg/mL and less than 1 µg/mL, respectively. Also, in test [3], the IC50 is less than 10 µM.

On to `O=C(O)c1c(F)ccc2c1OB(O)[C@@H](NC(=O)C(NC(=O)N1CCN(C3CCN(C(=O)Nc4ccc(F)c(O)c4F)CC3)C(=O)C1=O)c1cc(F)c(O)c(O)c1Cl)C2` (stereo partly drawn) [Example 486, (3R)-3-(2-(2-chloro-5-fluoro-3,4-dihydroxyphenyl)-2-(4-(1-((2,4-difluoro-3-hydroxyphenyl)carbamoyl)piperidin-4-yl)-2,3-dioxopiperazine-1-carboxamido)acetamido)-7-fluoro-2-hydroxy-3,4-dihydro-2H-benzo[e][1,2]oxaborinine-8-carboxylic acid], for which the EC50 in test [1] is less than 10 µM. Also, the MIC is 2 to 4 µg/mL (≈ 2.39 to 4.78 µM) in test [2], less than 1 µg/mL in test [4] and less than 1 µg/mL in test [5] (setting [7]). The IC50 in test [3] was less than 10 µM.

For the compound `O=C(O)c1c(F)ccc2c1OB(O)[C@@H](NC(=O)C(NC(=O)N1CCN(C3CCN(C(=O)Nc4c(F)ccc(O)c4F)CC3)C(=O)C1=O)c1cc(F)c(O)c(O)c1Cl)C2` (stereo partly drawn) [Example 487, (3R)-3-(2-(2-chloro-5-fluoro-3,4-dihydroxyphenyl)-2-(4-(1-((2,6-difluoro-3-hydroxyphenyl)carbamoyl)piperidin-4-yl)-2,3-dioxopiperazine-1-carboxamido)acetamido)-7-fluoro-2-hydroxy-3,4-dihydro-2H-benzo[e][1,2]oxaborinine-8-carboxylic acid], in test [1], the EC50 was in the range of 10 to 50 µM. Moreover, the MIC in test [2], in test [4] and in test [5] (setting [7]) was less than 1 µg/mL throughout. Further, the IC50 in test [3] is less than 10 µM.

In the case of `O=C(O)c1c(F)ccc2c1OB(O)[C@@H](NC(=O)C(NC(=O)N1CCN(C3CCN(C(=O)Nc4cc(O)c(F)c(F)c4)CC3)C(=O)C1=O)c1cc(F)c(O)c(O)c1Cl)C2` (stereo partly drawn) [Example 488, (3R)-3-(2-(2-chloro-5-fluoro-3,4-dihydroxyphenyl)-2-(4-(1-((3,4-difluoro-5-hydroxyphenyl)carbamoyl)piperidin-4-yl)-2,3-dioxopiperazine-1-carboxamido)acetamido)-7-fluoro-2-hydroxy-3,4-dihydro-2H-benzo[e][1,2]oxaborinine-8-carboxylic acid], the EC50 in test [1] is less than 10 µM. The MIC in test [2] is 8 to 16 µg/mL (≈ 9.56 to 19.1 µM); in test [4], less than 1 µg/mL; in test [5] (setting [7]), less than 1 µg/mL. In addition, the IC50 in test [3] is less than 10 µM.
